Assay results reported in US20090062537A1, “N-Formyl Hydrozyamine Compounds” (priority 2006, published 2009).
Where a chain is given by its changes, count along the chain named. Converted amounts (≈) assume the structure as drawn.

Molecular target: T1, Streptococcus pneumoniae peptide deformylase G70V mutant (Streptococcus pneumoniae serotype 4, UniProt Q9F2F0, G70V)
T1 sequence (Q9F2F0 1-203 G70V): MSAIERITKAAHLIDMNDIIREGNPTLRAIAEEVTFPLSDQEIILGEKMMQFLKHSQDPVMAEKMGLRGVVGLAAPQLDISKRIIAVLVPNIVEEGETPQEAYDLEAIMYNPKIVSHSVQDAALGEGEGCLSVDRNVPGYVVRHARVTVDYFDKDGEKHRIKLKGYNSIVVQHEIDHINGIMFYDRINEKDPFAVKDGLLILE
Experiment: Inhibition of S. pneumoniae peptide deformylase activity, G70V mutant enzyme
Type: biochemical
Conditions: PDF G70V
Description: (§1) A PDF/FDH coupled assay (Lazennec et al., Anal. Biochem., Vol. 224, pp. 180-182 (1997)) is used. In this coupled assay, the formate released by PDF from its substrate fMAS is oxidized by the coupling enzyme FDH, reducing one molecule of NAD^+ to NADH, which causes an increase in absorption at 340 nm. All assays are carried out at room temperature in a buffer of 50 mM HEPES, pH 7.2, 10 mM NaCl, 0.2 mg/mL BSA, In half-area 96-well microtiter plates (Corning). The reaction is initiated by adding a mixture of 0.5 Unit/mL FDH, 1 mM NAD^+, and fMAS at the desired concentration. To determine IC50 (the concentration needed to inhibit 50% of enzyme activity) values, PDF is pre-incubated for 10 minutes with varying concentrations of the inhibitor, and the deformylation reaction is initiated by the addition of reaction mixture containing 4 mM fMAS. The initial reaction velocity, y, is measured as the initial rate of absorption increase at […] using a SpectraMax plate reader (Molecular Devices, Sunnyvale, Calif.). The Inhibitor concentration [In] at which 50% of the enzyme activity is inhibited, IC50, is calculated using the following formula:
(§2) where yo is the reaction velocity in the absence of inhibitor. Solving this equation for IC50 at the [In] when y=yo/2 yields IC50. The IC50 is calculated based on a nonlinear least-square regression fit using a commercial software package (Deltapoint, Inc., Chicago, Ill.).
(§3) Peptide deformylase activity is essential for growth of S. pneumoniae. The mutants that are selected on NVP-LBM415 were not compromised for growth in vitro, therefore the mutations in defB that confer resistance to these compounds would not be expected to dramatically alter enzymatic activity. To test this hypothesis, the kinetics of peptide deformylase activity are determined using the substrate f-Met-Ala-Ser.
(§4) To investigate further, the IC50s and MICs of specific pairs of compounds differing only in this feature are determined.

`CCCC[C@H](CN(O)C=O)C(=O)N1C[C@@H](C(C)C)C[C@H]1C(=O)Nc1ccc(F)c[n+]1[O-]` and `CCCC[C@H](CN(O)C=O)C(=O)N1C[C@H](C(C)C)C[C@H]1C(=O)Nc1ccc(F)c[n+]1[O-]` are within 1.5-fold of each other in IC50: 1.78 nM for the first, 1.56 nM for the second.

`CCCC[C@H](CN(O)C=O)C(=O)N1C[C@H](C(C)C)C[C@H]1C(=O)Nc1ccc(F)cn1` and `CCCC[C@H](CN(O)C=O)C(=O)N1C[C@@H](C(C)C)C[C@H]1C(=O)Nc1ccc(F)cn1` are within 1.5-fold of each other in IC50: 0.7 nM for the first, 1.01 nM for the second.

Going from `CCCC[C@H](CN(O)C=O)C(=O)N1CCC[C@H]1C(=O)Nc1ccc(F)c[n+]1[O-]` [reference compound] to `O=CN(O)C[C@@H](CC1CCCC1)C(=O)N1C[C@H](F)C[C@H]1C(=O)Nc1cncc[n+]1[O-]`, the IC50 rises from 1.35 nM to 2.05 nM (1.5-fold). The first is the more potent here.

For `O=CN(O)C[C@@H](CC1CCCC1)C(=O)N1C[C@H](F)C[C@H]1C(=O)Nc1cnccn1`, the IC50 was 0.5 nM.

Molecular target: T2, Streptococcus pneumoniae peptide deformylase G70D mutant (Streptococcus pneumoniae serotype 4, UniProt Q9F2F0, G70D)
T2 sequence (Q9F2F0 1-203 G70D): T1 sequence (Q9F2F0 1-203 G70V) with V70D
Experiment: Inhibition of S. pneumoniae peptide deformylase activity, G70D mutant enzyme
Type: biochemical
Conditions: PDF G70D
Description: as §1, §2, §3, §4

`CCCC[C@H](CN(O)C=O)C(=O)N1C[C@@H](C(C)C)C[C@H]1C(=O)Nc1ccc(F)c[n+]1[O-]` and `CCCC[C@H](CN(O)C=O)C(=O)N1C[C@H](C(C)C)C[C@H]1C(=O)Nc1ccc(F)c[n+]1[O-]` are within error of each other in IC50: 1.38 ± 0.78 nM for the first, 1.19 nM for the second.

First: CCCC[C@H](CN(O)C=O)C(=O)N1C[C@H](C(C)C)C[C@H]1C(=O)Nc1ccc(F)cn1
Second: CCCC[C@H](CN(O)C=O)C(=O)N1C[C@@H](C(C)C)C[C@H]1C(=O)Nc1ccc(F)cn1
The IC50 of the first is 1.8-fold lower: 0.25 nM for the first, 0.46 nM for the second.

`CCCC[C@H](CN(O)C=O)C(=O)N1CCC[C@H]1C(=O)Nc1ccc(F)c[n+]1[O-]` [reference compound] and `O=CN(O)C[C@@H](CC1CCCC1)C(=O)N1C[C@H](F)C[C@H]1C(=O)Nc1cncc[n+]1[O-]` are within 1.5-fold of each other in IC50: 1.28 nM for the first, 0.91 nM for the second.

`O=CN(O)C[C@@H](CC1CCCC1)C(=O)N1C[C@H](F)C[C@H]1C(=O)Nc1cnccn1` showed an IC50 of 0.34 nM.

Test system: Streptococcus pneumoniae PDF G70D mutant
Experiment: MIC, culture growth of S. pneumoniae PDF G70D mutant
Type: cell-based
Conditions: PDFG70DMUTANT
Description: (§5) Minimum inhibitory concentrations (MICs) are determined using the microdilution method In 96-well format plates. Compounds are suspended in DMSO at 5 or 10 mg/mL and stored at 4° C. until used. They are diluted in Mueller-Hinton Broth (MHB) or Trypticase Soy Broth (TSB) and used for MIC determination. The range of concentrations tested is 64-0.0625 μg/mL final concentration using a two-fold dilution system.
(§6) The inoculum is prepared from cells grown on Trypticase Soy Agar (TSA) and incubated overnight at 35° C., 5-10 colonies are used to inoculate MHB or TSB broths, and the culture is incubated overnight at 35° C. The overnight culture is diluted 1:10, incubated for 1 hour at 35° C., diluted to the appropriate inoculum size and applied to the wells containing broth and test compound. Inoculum sizes are 2×10^4 CFU/mL.
as §4

Compared with `CCCC[C@H](CN(O)C=O)C(=O)N1C[C@@H](C(C)C)C[C@H]1C(=O)Nc1ccc(F)c[n+]1[O-]`, `CCCC[C@H](CN(O)C=O)C(=O)N1C[C@H](C(C)C)C[C@H]1C(=O)Nc1ccc(F)c[n+]1[O-]` is 2-fold lower in MIC: 10.3 µg/mL (≈ 23.4 µM) for the first, 5.14 µg/mL (≈ 11.7 µM) for the second.

`CCCC[C@H](CN(O)C=O)C(=O)N1C[C@H](C(C)C)C[C@H]1C(=O)Nc1ccc(F)cn1` and `CCCC[C@H](CN(O)C=O)C(=O)N1C[C@@H](C(C)C)C[C@H]1C(=O)Nc1ccc(F)cn1` are within 1.5-fold of each other in MIC: 1.07 µg/mL (≈ 2.53 µM) for the first, 1.57 µg/mL (≈ 3.72 µM) for the second.

Going from `CCCC[C@H](CN(O)C=O)C(=O)N1CCC[C@H]1C(=O)Nc1ccc(F)c[n+]1[O-]` [reference compound] to `O=CN(O)C[C@@H](CC1CCCC1)C(=O)N1C[C@H](F)C[C@H]1C(=O)Nc1cncc[n+]1[O-]`, the MIC falls from 6.44 µg/mL (≈ 16.2 µM) to 1 µg/mL (≈ 2.36 µM) (6.4-fold).

Work on `O=CN(O)C[C@@H](CC1CCCC1)C(=O)N1C[C@H](F)C[C@H]1C(=O)Nc1cnccn1` yielded an MIC of 0.25 µg/mL (≈ 0.614 µM).

Test system: Streptococcus pneumoniae (wild type PDF)
Experiment: MIC, culture growth of S. pneumoniae with wild type PDF
Type: cell-based
Conditions: PDF W.T.
Description: as §5, §6, §4

First: CCCC[C@H](CN(O)C=O)C(=O)N1C[C@@H](C(C)C)C[C@H]1C(=O)Nc1ccc(F)c[n+]1[O-]
Second: CCCC[C@H](CN(O)C=O)C(=O)N1C[C@H](C(C)C)C[C@H]1C(=O)Nc1ccc(F)c[n+]1[O-]
The MIC of the first is 2.2-fold higher: 1.42 ± 0.2 µg/mL (≈ 3.24 µM) for the first, 0.64 ± 0.09 µg/mL (≈ 1.46 µM) for the second.

First: CCCC[C@H](CN(O)C=O)C(=O)N1C[C@H](C(C)C)C[C@H]1C(=O)Nc1ccc(F)cn1
Second: CCCC[C@H](CN(O)C=O)C(=O)N1C[C@@H](C(C)C)C[C@H]1C(=O)Nc1ccc(F)cn1
The MIC of the first is 2-fold lower: 0.71 ± 0.1 µg/mL (≈ 1.68 µM) for the first, 1.43 ± 0.2 µg/mL (≈ 3.38 µM) for the second.

`CCCC[C@H](CN(O)C=O)C(=O)N1CCC[C@H]1C(=O)Nc1ccc(F)c[n+]1[O-]` [reference compound] and `O=CN(O)C[C@@H](CC1CCCC1)C(=O)N1C[C@H](F)C[C@H]1C(=O)Nc1cncc[n+]1[O-]` are within error of each other in MIC: 0.45 ± 0.07 µg/mL (≈ 1.14 µM) for the first, 0.29 ± 0.11 µg/mL (≈ 0.685 µM) for the second.

`O=CN(O)C[C@@H](CC1CCCC1)C(=O)N1C[C@H](F)C[C@H]1C(=O)Nc1cnccn1` was tested, and the MIC was 0.16 ± 0.1 µg/mL (≈ 0.393 µM).

Molecular target: T3, Streptococcus pneumoniae peptide deformylase, wild type (W.T.) (Streptococcus pneumoniae serotype 4, UniProt Q9F2F0)
T3 sequence (Q9F2F0 1-203): T1 sequence (Q9F2F0 1-203 G70V) with V70G
Experiment: Inhibition of S. pneumoniae peptide deformylase activity, wild type enzyme
Type: biochemical
Conditions: PDF W.T.
Description: as §1, §2, §3, §4

`CCCC[C@H](CN(O)C=O)C(=O)N1C[C@@H](C(C)C)C[C@H]1C(=O)Nc1ccc(F)c[n+]1[O-]` and `CCCC[C@H](CN(O)C=O)C(=O)N1C[C@H](C(C)C)C[C@H]1C(=O)Nc1ccc(F)c[n+]1[O-]` are within 1.5-fold of each other in IC50: 0.23 ± 0.04 nM for the first, 0.31 ± 0.03 nM for the second.

`CCCC[C@H](CN(O)C=O)C(=O)N1C[C@H](C(C)C)C[C@H]1C(=O)Nc1ccc(F)cn1` and `CCCC[C@H](CN(O)C=O)C(=O)N1C[C@@H](C(C)C)C[C@H]1C(=O)Nc1ccc(F)cn1` are within error of each other in IC50: 0.27 ± 0.03 nM for the first, 0.31 ± 0.04 nM for the second.

`CCCC[C@H](CN(O)C=O)C(=O)N1CCC[C@H]1C(=O)Nc1ccc(F)c[n+]1[O-]` [reference compound] and `O=CN(O)C[C@@H](CC1CCCC1)C(=O)N1C[C@H](F)C[C@H]1C(=O)Nc1cncc[n+]1[O-]` are within 1.5-fold of each other in IC50: 0.31 ± 0.03 nM for the first, 0.37 ± 0.02 nM for the second.

For `O=CN(O)C[C@@H](CC1CCCC1)C(=O)N1C[C@H](F)C[C@H]1C(=O)Nc1cnccn1`, the IC50 was 0.25 ± 0.04 nM.

Test system: Streptococcus pneumoniae PDF G70V mutant
Experiment: MIC, culture growth of S. pneumoniae PDF G70V mutant
Type: cell-based
Conditions: PDFG70VMUTANT
Description: as §5, §6, §4

Going from `CCCC[C@H](CN(O)C=O)C(=O)N1C[C@@H](C(C)C)C[C@H]1C(=O)Nc1ccc(F)c[n+]1[O-]` to `CCCC[C@H](CN(O)C=O)C(=O)N1C[C@H](C(C)C)C[C@H]1C(=O)Nc1ccc(F)c[n+]1[O-]`, the MIC falls from 10.3 µg/mL (≈ 23.5 µM) to 6.3 µg/mL (≈ 14.4 µM) (1.6-fold).

Going from `CCCC[C@H](CN(O)C=O)C(=O)N1C[C@H](C(C)C)C[C@H]1C(=O)Nc1ccc(F)cn1` to `CCCC[C@H](CN(O)C=O)C(=O)N1C[C@@H](C(C)C)C[C@H]1C(=O)Nc1ccc(F)cn1`, the MIC rises from 1.43 µg/mL (≈ 3.38 µM) to 2.86 µg/mL (≈ 6.77 µM) (2-fold).

First: CCCC[C@H](CN(O)C=O)C(=O)N1CCC[C@H]1C(=O)Nc1ccc(F)c[n+]1[O-] [reference compound]
Second: O=CN(O)C[C@@H](CC1CCCC1)C(=O)N1C[C@H](F)C[C@H]1C(=O)Nc1cncc[n+]1[O-]
The MIC of the first is 2.2-fold higher: 5.8 µg/mL (≈ 14.6 µM) for the first, 2.67 µg/mL (≈ 6.31 µM) for the second.

`O=CN(O)C[C@@H](CC1CCCC1)C(=O)N1C[C@H](F)C[C@H]1C(=O)Nc1cnccn1` gave an MIC of 0.33 µg/mL (≈ 0.81 µM).
